Like-named read-outs stand apart in the source and are kept apart here. Marks after values point to notes of the source that are not given here.

Data set [1] has as its target T1, BSA (bovine serum albumin) (Bos taurus, UniProt P02769).
T1 construct: BSA (bovine serum albumin, fraction V, Sigma); purchased Sigma; host or cells: bovine serum (fraction V)
Nature of the data set: Protein binding by ultrafiltration in 2% BSA Krebs buffer. It is filed as in vitro ADME. To be noted: 2% BSA Krebs-Henseleit buffer pH 7.4, 37° C.; slope of Scatchard plot. The protocol: These experiments were carried out in Krebs-Henseleit buffer containing 2% w/v BSA (pH 7.4) and incubated at 37° C. for 30 minutes.
A known concentration of the ethanolic (≲1%) aspirin analogue or diflunisal ester stock solution was added to the 2% BSA Krebs solution to make final concentrations of 125 μM, 250 μM and 500 μM.
The unbound fraction (fu) of parent drug and its hydrolysis product were investigated using ultra-filtration: A 1.0 mL aliquot sample (in triplicate) was placed in a ultrafiltration tube (MPS-1, micro-partition system, Amicon) and centrifuged at 3000 g for 10 minutes. The ultra-filtrate was then assayed for parent drug and its hydrolysis product by HPLC.
To eliminate possible errors caused by hydrolysis, identical samples were placed in normal tubes and subjected to the same procedure. This control group (also in triplicate) was used to adjust for the percentage of hydrolysis in the ultra-filtrate under the experimental conditions.
The fu was determined as the ratio of the free concentration to total concentration of solutes. The binding constant (K) was determined from the slope of a Scatchard plot using following equation:
[Db]/[D]=−K[Db]vK[Pt] (3)
where [Db] is the concentration of bound drug, [D] is the concentration of drug, [Pt] is the concentration of total protein, and v is the number of independent binding sites available. This equation is plotted as the ratio [Db]/[D] versus [Db] and in this way the binding constant (K) is determined from the slope while vK[Pt] is determined from the intercept (Martin, 1983).

The test system of data set [2] is ischaemic/reperfusion rat livers. The data set is described as follows: Ischaemic/reperfusion injury in rat livers (LDH release, bile production). Set-up: species or system Female Sprague-Dawley rats. To be noted: for EC50: Rattus norvegicus. The protocol: Female Sprague-Dawley rats (220-250 g) were anaesthetised by interperitoneal injection of pentobarbital sodium (60 mg/kg, Boehringer Ingelhein). […] The bile duct was cannulated with a polyethylene tubing (PE-10, I.D. 0.28 mm; Clay Adams, New Jersey) and bile was collected into pre-weighed microcentrifuge tubes at 70 min intervals (in the middle of experiment and the end of experiment). The portal vein was then cannulated using a 16 G intravenous catheter and the liver was perfused via this cannula with 2% BSA Krebs-Henseleit bicarbonate buffer (pH 7.4) and oxygenated using a membrane oxygenator comprising of silastic tubing and ventilated with carbogen (95% O2/5% CO2). The perfusion system used was recirculating and employed a peristaltic pump (Cole-Parmer, Illinois).
Following a 10 min pre-ischaemia perfusion, the perfusion flow was stopped for 30 min at 37° C. with the liver being kept moist. At the end of this ischaemic phase, a known concentration of the aspirin analogue or diflunisal ester's solution (in 2% BSA Krebs-Henseleit buffer) was added into the perfusate prior to the perfusion being resumed for another 100 min. Outflow fractions were collected up to 140 min. A biochemistry autoanalyzer (Hitachi, model 747; Tokyo, Japan) was employed to determine the level of enzyme (LDH) release.
The degree of ischaemic/reperfusion injury was measured by calculating the area under the LDH release ([…]) versus time curve (AUC). […] The efficacy of each compound is expressed in terms of ED50 which represents the molar dose for 50% reduction of LDH release compared to the control. The comparison of bile production between the first stage of experiment (the first 70 min) and the second stage of experiment (the last 70 min) is also used as index of liver function during an experiment.

Data set [3] deals with OH. generated from Fenton's reaction. Nature of the data set: Luminol-dependent chemiluminescence induced by Fenton's reagent. It is filed as biochemical. Set-up: unit of the concentration uncertain. The settings on record: F: CL induced by Fenton's reagent, n=3. The protocol:
CL was measured with a luminometer (Model 1250; LKB Wallac, Finland) and recorded in millivolts (Cheung et al., 1984, supra).
Fenton's reagent (FeSO4 and H2O2) was used as a standard reaction mixture for the generation of OH. (Lai and Piette, 1979, Tetrahedron Lett. 775-778):
Fe^+++H2O2→Fe^++++OH.+OH (1)
The initial reaction mixture consisted of 20 μL of 3.8 mM FeSO4.7H2O, 20 μL of 5 mg/mL luminol (Sigma), and 2 mL of 1 mM phosphate buffer in a 3 mL polystyrene cuvette. Twenty microlitres of 320 mM H2O2 was added to initiate the Fenton's reaction.
A known concentration of the ethanolic (≲1%) aspirin analogue or diflunisal ester's stock solution was added to the 1 mM phosphate buffer to prepare solutions with a final concentration of 50 μM, 250 μM or 500 μM. Twenty microlitres of these test samples was added onto the cuvette which contained the initial reaction mixture. H2O2 was added to induce CL reaction. The luminol-dependent CL response was recorded in mV by a potentiometric recorder.
(§1) CL measurements were always done in triplicate and Student's t-test used to assess the statistical significance of the difference between measurements.

Data set [4] deals with superoxide generated from xanthine oxidase plus xanthine reaction. The data set is described as follows: Xanthine oxidase plus xanthine-induced chemiluminescence. To be noted: X: CL induced by xanthine oxidase plus xanthine. Set-up: dose or concentration left out as unconfirmed. It is filed as biochemical. The protocol:
To clarify the role of aspirin analogues and diflunisal esters in free radicals scavenging, the Fenton's reagent was replaced by an artificial superoxide generating system in the CL inhibition studies. This cell-free system consisted of 100 μg/mL of xanthine oxidase (Sigma) plus 0.5 μM xanthine (Sigma) (Rosen and Klebanoff, 1976, J Clin Invest 58 50-60; Cheson et al., 1976, J Clin Invest 58 789-796).
as §1

In data set [5] the test system is in-situ perfused rat liver. The data set is described as follows: In-situ rat liver perfusions, hepatic availability (Example 2). It is filed as in vitro ADME. The settings on record: 30 mL/min, bolus. The protocol: The hepatic availability (Fhepatic) for the O-acyl esters of the salicylic acid and diflunisal was determined using a once through in-situ perfused rat liver preparation (Mellick et al, Unpublished Results).
Protein-free Krebs-Henseleit buffer was perfused at 30 mL/min for aspiring analogues and 2% BSA in Krebs-Henseleit buffer for diflunisal esters (since the solubilities of these latter compounds in protein-free media were very low (Hung et al, supra), 2% BSA were used to increase their solubilities). Briefly, 50 μL aliquots of a saturated solution of the particular O-acyl salicylic acid or diflunisal in Krebs-Henseleit buffer (or with 2% BSA) was injected into the liver with perfusate outflow samples collected via a fraction collector over three minutes. Aliquots (100 μL) from the outflow samples were assayed by HPLC to determine the residual concentration of presented ester and the quantity of phenolic metabolite (salicylic acid or diflunisal) issuing from the perfused liver. The HPLC assay was a modification of the method used by Mellick & Roberts 1996 (Mellick et al, 1996, unpublished results).
The hepatic availability (F) was determined from the outflow concentration versus time profiles for the esters using equation 1, with the assistance of the Moments Calculator 2.2 program for Macintosh computer developed by Robert Purves.
where Q is the perfusate flow rate and D is the dose of aspirin analogues or diflunisal esters administered. The area under the concentration-time curve (AUC) was estimated by the trapezoidal rule integration with appropriate modification for tail (Mellick et al, supra).

Where [6] appears, read: 0.5 (unit uncertain) compound, U = undetectable.
[7] abbreviates: 2% BSA in Krebs-Henseleit buffer as perfusate.
Where [8] appears, read: protein-free Krebs-Henseleit buffer as perfusate.
[9] abbreviates: C is the ED50 molar dose, read-out: log 1/C (converted).
Setting [10] is: molar dose for 50% reduction of LDH release compared to control, 30 min ischaemia, 100 min reperfusion, read-out: ED50 (the source's name).

T1 sequence (P02769 25-607): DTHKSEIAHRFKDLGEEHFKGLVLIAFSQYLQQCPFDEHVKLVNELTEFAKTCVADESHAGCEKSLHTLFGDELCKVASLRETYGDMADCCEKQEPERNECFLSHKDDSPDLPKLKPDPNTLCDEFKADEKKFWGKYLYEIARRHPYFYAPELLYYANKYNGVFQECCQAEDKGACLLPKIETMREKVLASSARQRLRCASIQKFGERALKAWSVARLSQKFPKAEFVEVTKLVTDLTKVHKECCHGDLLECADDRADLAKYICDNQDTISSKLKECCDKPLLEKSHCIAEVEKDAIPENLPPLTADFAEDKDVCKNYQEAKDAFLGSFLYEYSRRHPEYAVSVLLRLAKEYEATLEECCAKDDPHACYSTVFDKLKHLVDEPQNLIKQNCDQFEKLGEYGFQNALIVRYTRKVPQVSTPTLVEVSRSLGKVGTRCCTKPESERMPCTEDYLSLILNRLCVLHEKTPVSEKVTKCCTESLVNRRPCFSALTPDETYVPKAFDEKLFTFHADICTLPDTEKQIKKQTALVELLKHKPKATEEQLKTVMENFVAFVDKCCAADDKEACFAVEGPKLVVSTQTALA

`CCCCC(=O)Oc1ccc(-c2ccc(F)cc2F)cc1C(=O)O` [Compound C5D, n-pentanoyldiflunisal]: in data set [1], the “Protein binding constant (K)” value came to 2707 L/mol. The “log 1/C” value in data set [2] (C is the ED50 molar dose) stood at 4.77. The “CL inhibition (%)” value in data set [3] (setting [6]) was determined as 22.2 ± 7.1%; in data set [3] (2.5 (unit uncertain) compound), 58.2 ± 2.5%; in data set [3] (5 (unit uncertain) compound), 88.8 ± 0.9%; in data set [4], 0.8 ± 0.0%. The “Hepatic availability (F)” value in data set [5] (setting [7]) came out at 0.38.

In the case of “O-acetylsalicylic acid [Compound C2SA, reference compound]”, the “Protein binding constant (K)” value in data set [1] amounted to 192 L/mol. In addition, the “CL inhibition (%)” value in data set [3] (2.5 (unit uncertain) compound) worked out at 43.3 ± 5.0%; in data set [3] (5 (unit uncertain) compound), 97.6 ± 0.5%; in data set [4] it was 0.4 ± 0.1%. In addition, in data set [5] (setting [8]), the “Hepatic availability (F)” value came out at 0.85.

As to `CCCC(=O)Oc1ccc(-c2ccc(F)cc2F)cc1C(=O)O` [Compound C4D, n-butanoyldiflunisal], the “Protein binding constant (K)” value in data set [1] was 2365 L/mol. In addition, the “log 1/C” value in data set [2] (C is the ED50 molar dose) is on record as 4.67. Besides, the “CL inhibition (%)” value was 16.9 ± 4.9% in data set [3] (setting [6]), 65.1 ± 2.1% in data set [3] (2.5 (unit uncertain) compound), 93.7 ± 0.5% in data set [3] (5 (unit uncertain) compound) and 0.6 ± 0.1% in data set [4]. The “Hepatic availability (F)” value in data set [5] (setting [7]) stood at 0.34.

Take `CC(=O)Oc1ccc(-c2ccc(F)cc2F)cc1C(=O)O` [Compound C2D, acetyldiflunisal]: the “Protein binding constant (K)” value in data set [1] is 2077 L/mol. In addition, the “log 1/C” value in data set [2] (C is the ED50 molar dose) was 4.61. The “CL inhibition (%)” value in data set [3] (setting [6]) was 21.3 ± 5.0%; in data set [3] (2.5 (unit uncertain) compound) it was 49.8 ± 3.9%; in data set [3] (5 (unit uncertain) compound), 91.2 ± 0.6%; in data set [4], 0.5 ± 0.0%. For the same compound, in data set [5] (setting [7]), the “Hepatic availability (F)” value is on record as 0.21.

Consider `CCCCCC(=O)Oc1ccccc1C(=O)O` [Compound C6SA, n-hexanoylsalicylic acid], for which the “Protein binding constant (K)” value in data set [1] was found to be 2071 L/mol. Further, the EC50 was 28.8 µM in data set [2] (setting [9]) and 29.1 µM in data set [2] (setting [10]). Also, the “CL inhibition (%)” value in data set [3] (setting [6]) is recorded as 0.2 ± 0.1%; in data set [3] (2.5 (unit uncertain) compound), 56.0 ± 3.7%; in data set [3] (5 (unit uncertain) compound) it was 96.0 ± 2.1%; in data set [4], 0.2 ± 0.0%. Further, the “Hepatic availability (F)” value in data set [5] (setting [8]) is reported as 0.02.

Consider `CCCCCC(=O)Oc1ccc(-c2ccc(F)cc2F)cc1C(=O)O` [Compound C6D, n-hexanoyldiflunisal], for which the “Protein binding constant (K)” value in data set [1] stood at 2995 L/mol. Further, the “log 1/C” value in data set [2] (C is the ED50 molar dose) was 4.68. Further, the “CL inhibition (%)” value stood at 20.5 ± 4.6% in data set [3] (setting [6]), 54.8 ± 2.4% in data set [3] (2.5 (unit uncertain) compound), 92.7 ± 3.1% in data set [3] (5 (unit uncertain) compound) and 0.7 ± 0.1% in data set [4]. For the same compound, the “Hepatic availability (F)” value in data set [5] (setting [7]) was 0.38.

Turning to `CCCCC(=O)Oc1ccccc1C(=O)O` [Compound C5SA, n-pentanoylsalicylic acid], in data set [1], the “Protein binding constant (K)” value came out at 1525 L/mol. Moreover, the EC50 in data set [2] (setting [9]) was 34.7 µM; in data set [2] (setting [10]), 34.6 µM. The “CL inhibition (%)” value in data set [3] (setting [6]) is 0.4 ± 0.1^e %; in data set [3] (2.5 (unit uncertain) compound), 45.9 ± 5.0%; in data set [3] (5 (unit uncertain) compound) it was 95.6 ± 0.4%; in data set [4], 0.3 ± 0.0%. Moreover, in data set [5] (setting [8]), the “Hepatic availability (F)” value is recorded as 0.26.

Turning to `O=C(O)c1cc(-c2ccc(F)cc2F)ccc1O` [DF, 2′,4′-difluoro-4-hydroxy-3-biphenylcarboxylic acid, reference compound], the EC50 in data set [2] (setting [9]) was 25.1 µM; in data set [2] (setting [10]) it was 25.2 µM. The “CL inhibition (%)” value in data set [3] (setting [6]) stood at 19.2 ± 6.9%; in data set [3] (2.5 (unit uncertain) compound) it was 50.6 ± 2.8%; in data set [3] (5 (unit uncertain) compound), 92.1 ± 0.6%; in data set [4], 0.4 ± 0.1%.

Regarding `CCCC(=O)Oc1ccccc1C(=O)O` [Compound C4SA, n-butanoylsalicylic acid], the EC50 in data set [2] (setting [9]) is 49 µM; in data set [2] (setting [10]), 48.8 µM. The results for the “CL inhibition (%)” value in data set [3] (2.5 (unit uncertain) compound), in data set [3] (5 (unit uncertain) compound) and in data set [4] were 41.3 ± 7.5%, 84.2 ± 1.4% and 0.3 ± 0.1%, respectively. In addition, in data set [5] (setting [8]), the “Hepatic availability (F)” value came to 0.40.
